Values joined by “and” are separate entries in the source; they are usually repeats but may differ in a detail not shown here. Identical values can stand only once. Inconclusive results and toxic doses are left out.
Tested on: CD2F1 mice, L1210 leukemia ip, survival T/C
Assay: NCI In Vivo Anticancer Drug Screen. Data for tumor model L1210 Leukemia (intraperitoneal) in CD2F1 (CDF1) mice
Details: higher = longer survival
Outline: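 Implant tumor; dose compound or vehicle; measure endpoint in both groups; report treated divided by control.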

[1] = endpoint: mean survival time, dose: 50.0 mg/kg/injection, schedule: Q04DX003 (ip), vehicle: saline with Tween-80
[2] = endpoint: mean survival time, dose: 100.0 mg/kg/injection, schedule: Q04DX003 (ip), vehicle: saline with Tween-80
[3] = endpoint: mean survival time, dose: 200.0 mg/kg/injection, schedule: Q04DX003 (ip), vehicle: saline with Tween-80
[4] = endpoint: mean survival time, dose: 400.0 mg/kg/injection, schedule: Q04DX003 (ip), vehicle: saline with Tween-80
[5] = endpoint: mean survival time, dose: 100.0 mg/kg/injection, schedule: Q01DX009 (ip), vehicle: saline with Tween-80
[6] = endpoint: mean survival time, dose: 200.0 mg/kg/injection, schedule: Q01DX009 (ip), vehicle: saline with Tween-80

With `NCCCNCCCCNC(=O)C(O)NC(=O)CCCCCCN=C(N)N` (centres undefined) the T/C (endpoint: median survival time, dose: 0.19 mg/kg/injection, schedule: Q01DX005 (iv), vehicle: saline) was 123 % of control, the T/C (endpoint: median survival time, dose: 0.39 mg/kg/injection, schedule: Q01DX009 (ip), vehicle: saline) was 185 % of control and 231 % of control and the T/C (endpoint: median survival time, dose: 0.75 mg/kg/injection, schedule: Q01DX009 (ip), vehicle: saline) was 198 % of control. The T/C (endpoint: median survival time, dose: 0.78 mg/kg/injection, schedule: Q01DX005 (iv), vehicle: other) was 153 % of control, the T/C (endpoint: median survival time, dose: 0.78 mg/kg/injection, schedule: Q01DX005 (iv), vehicle: saline) was 156 % of control and the T/C (endpoint: median survival time, dose: 0.78 mg/kg/injection, schedule: Q01DX009 (ip), vehicle: other) was 213 % of control. For the same molecule, the T/C (endpoint: median survival time, dose: 1.3 mg/kg/injection, schedule: Q01DX005 (iv), vehicle: other) was 153 % of control, the T/C (endpoint: median survival time, dose: 1.3 mg/kg/injection, schedule: Q01DX005 (iv), vehicle: saline) was 161 % of control and the T/C (endpoint: median survival time, dose: 1.5 mg/kg/injection, schedule: Q01DX009 (ip), vehicle: saline) was 220 % of control. For the same molecule, the T/C (endpoint: median survival time, dose: 1.56 mg/kg/injection, schedule: Q01DX005 (iv), vehicle: saline) was 160 % of control, the T/C (endpoint: median survival time, dose: 1.56 mg/kg/injection, schedule: Q01DX009 (ip), vehicle: other) was 213 % of control and the T/C (endpoint: median survival time, dose: 2.16 mg/kg/injection, schedule: Q01DX005 (iv), vehicle: other) was 171 % of control. For the same molecule, the T/C (endpoint: median survival time, dose: 2.16 mg/kg/injection, schedule: Q01DX005 (iv), vehicle: saline) was 165 % of control, the T/C (endpoint: median survival time, dose: 3.0 mg/kg/injection, schedule: Q01DX009 (ip), vehicle: saline) was 220 % of control and the T/C (endpoint: median survival time, dose: 3.12 mg/kg/injection, schedule: Q01DX005 (iv), vehicle: saline) was 172 % of control. The T/C (endpoint: median survival time, dose: 3.12 mg/kg/injection, schedule: Q01DX009 (ip), vehicle: other) was 204 % of control, the T/C (endpoint: median survival time, dose: 3.6 mg/kg/injection, schedule: Q01DX005 (iv), vehicle: other) was 176 % of control and the T/C (endpoint: median survival time, dose: 3.6 mg/kg/injection, schedule: Q01DX005 (iv), vehicle: saline) was 164 % of control. The T/C (endpoint: median survival time, dose: 4.4 mg/kg/injection, schedule: Q01DX009 (ip), vehicle: saline) was 221 % of control and 225 % of control and 230 % of control, the T/C (endpoint: median survival time, dose: 4.5 mg/kg/injection, schedule: Q01DX009 (ip), vehicle: saline) was 219 % of control and the T/C (endpoint: median survival time, dose: 6.0 mg/kg/injection, schedule: Q01DX005 (iv), vehicle: other) was 175 % of control. For the same molecule, the T/C (endpoint: median survival time, dose: 6.0 mg/kg/injection, schedule: Q01DX005 (iv), vehicle: saline) was 172 % of control, the T/C (endpoint: median survival time, dose: 6.0 mg/kg/injection, schedule: Q01DX009 (ip), vehicle: saline) was 219 % of control and the T/C (endpoint: median survival time, dose: 6.25 mg/kg/injection, schedule: Q01DX005 (iv), vehicle: saline) was 430 % of control. The T/C (endpoint: median survival time, dose: 6.25 mg/kg/injection, schedule: Q01DX009 (ip), vehicle: other) was 225 % of control, the T/C (endpoint: median survival time, dose: 7.88 mg/kg/injection, schedule: Q01DX005 (sc), vehicle: water) was 163 % of control and the T/C (endpoint: median survival time, dose: 10.0 mg/kg/injection, schedule: Q01DX005 (iv), vehicle: saline) was 180 % of control. The T/C (endpoint: median survival time, dose: 12.0 mg/kg/injection, schedule: Q01DX009 (ip), vehicle: saline) was 223 % of control, the T/C (endpoint: median survival time, dose: 12.5 mg/kg/injection, schedule: Q01DX009 (ip), vehicle: other) was 242 % of control and the T/C (endpoint: median survival time, dose: 15.75 mg/kg/injection, schedule: Q01DX005 (sc), vehicle: water) was 173 % of control and 179 % of control. For the same molecule, the T/C (endpoint: median survival time, dose: 25.0 mg/kg/injection, schedule: Q01DX009 (ip), vehicle: other) was 227 % of control, the T/C (endpoint: median survival time, dose: 31.5 mg/kg/injection, schedule: Q01DX005 (sc), vehicle: water) was 178 % of control and 182 % of control and the T/C (endpoint: median survival time, dose: 31.5 mg/kg/injection, schedule: Q03HX008 (sc), vehicle: water) was 164 % of control. The T/C (endpoint: median survival time, dose: 37.0 mg/kg/injection, schedule: Q01DX005 (sc), vehicle: water) was 183 % of control, the T/C (endpoint: median survival time, dose: 45.0 mg/kg/injection, schedule: Q01DX005 (sc), vehicle: water) was 176 % of control and the T/C (endpoint: median survival time, dose: 150.0 micrograms per hour, schedule: Q#X X048 (sc), vehicle: water) was 182 % of control. The T/C (endpoint: median survival time, dose: 150.0 micrograms per hour, schedule: Q#X X072 (sc), vehicle: water) was 182 % of control, the T/C (endpoint: median survival time, dose: 150.0 micrograms per hour, schedule: Q#X X096 (sc), vehicle: water) was 205 % of control and the T/C (endpoint: median survival time, dose: 170.0 micrograms per hour, schedule: Q#X X048 (sc), vehicle: water) was 178 % of control. For the same molecule, the T/C (endpoint: median survival time, dose: 170.0 micrograms per hour, schedule: Q#X X072 (sc), vehicle: water) was 200 % of control, the T/C (endpoint: median survival time, dose: 200.0 micrograms per hour, schedule: Q#X X048 (sc), vehicle: water) was 110 % of control and the T/C (endpoint: median survival time, dose: 200.0 micrograms per hour, schedule: Q#X X072 (sc), vehicle: water) was 101 % of control. The T/C (endpoint: median survival time, dose: 200.0 micrograms per hour, schedule: Q#X X096 (sc), vehicle: water) was 114 % of control, the T/C (endpoint: median survival time, dose: 207.0 micrograms per hour, schedule: Q#X X048 (sc), vehicle: water) was 168 % of control and the T/C (endpoint: median survival time, dose: 207.0 micrograms per hour, schedule: Q#X X072 (sc), vehicle: water) was 120 % of control. The T/C (endpoint: median survival time, dose: 207.0 micrograms per hour, schedule: Q#X X096 (sc), vehicle: water) was 109 % of control.

With `NCC1OC(n2cnc3c(N)ncnc32)C(O)C1O` (centres undefined) the T/C (endpoint: mean survival time, dose: 12.5 mg/kg/injection, schedule: Q01DX005 (ip), vehicle: Klucel (hydroxypropylcellulose) (HPC)) was 109 % of control, the T/C (endpoint: mean survival time, dose: 25.0 mg/kg/injection, schedule: Q01DX005 (ip), vehicle: Klucel (hydroxypropylcellulose) (HPC)) was 107 % of control and the T/C (endpoint: mean survival time, dose: 50.0 mg/kg/injection, schedule: Q01DX005 (ip), vehicle: Klucel (hydroxypropylcellulose) (HPC)) was 115 % of control. For the same molecule, the T/C (endpoint: mean survival time, dose: 100.0 mg/kg/injection, schedule: Q01DX005 (ip), vehicle: Klucel (hydroxypropylcellulose) (HPC)) was 115 % of control.

`C[As](C)[Se]CC1OC(O)C(O)C(O)C1O` (centres undefined) was tested, and the T/C (endpoint: mean survival time, dose: 12.5 mg/kg/injection, schedule: Q04DX003 (ip), vehicle: saline with Tween-80) was 97 % of control, the T/C (endpoint: mean survival time, dose: 25.0 mg/kg/injection, schedule: Q04DX003 (ip), vehicle: saline with Tween-80) was 101 % of control and the T/C [1] was 98 % of control.

With `CCc1cc(C)cc(OC(=O)Nc2cccc(Cl)c2)c1` the T/C [2] was 88 % of control, the T/C [3] was 92 % of control and the T/C [4] was 92 % of control.

In the case of `CCOC(=O)C12CCC(C1=O)C(C)(O)CC2` (centres undefined), the T/C (endpoint: mean survival time, dose: 50.0 mg/kg/injection, schedule: Q01DX009 (ip), vehicle: acetone) is reported as 92 % of control, the T/C (endpoint: mean survival time, dose: 100.0 mg/kg/injection, schedule: Q01DX009 (ip), vehicle: acetone) is reported as 90 % of control and the T/C (endpoint: mean survival time, dose: 200.0 mg/kg/injection, schedule: Q01DX009 (ip), vehicle: acetone) is reported as 94 % of control.

For `NC(=S)N/N=C/c1ccc(OC(=O)COc2ccccc2Cl)cn1`, the T/C (endpoint: mean survival time, dose: 12.5 mg/kg/injection, schedule: Q01DX009 (ip), vehicle: saline with Tween-80) was 120 % of control, the T/C (endpoint: mean survival time, dose: 25.0 mg/kg/injection, schedule: Q01DX009 (ip), vehicle: saline with Tween-80) was 122 % of control and the T/C (endpoint: mean survival time, dose: 50.0 mg/kg/injection, schedule: Q01DX001 (ip), vehicle: saline with Tween-80) was 101 % of control. For the same molecule, the T/C [1] was 116 % of control and 118 % of control, the T/C (endpoint: mean survival time, dose: 100.0 mg/kg/injection, schedule: Q01DX001 (ip), vehicle: saline with Tween-80) was 108 % of control and the T/C [5] was 159 % of control. The T/C (endpoint: mean survival time, dose: 100.0 mg/kg/injection, schedule: Q04DX002 (ip), vehicle: saline with Tween-80) was 103 % of control and 106 % of control, the T/C [2] was 124 % of control and the T/C (endpoint: mean survival time, dose: 200.0 mg/kg/injection, schedule: Q01DX001 (ip), vehicle: saline with Tween-80) was 113 % of control. The T/C [6] was 155 % of control, the T/C (endpoint: mean survival time, dose: 200.0 mg/kg/injection, schedule: Q04DX002 (ip), vehicle: saline with Tween-80) was 118 % of control and 107 % of control and the T/C [4] was 152 % of control and 163 % of control.

`CCOC(=O)C(C#N)(CCC#N)CCC#N` was tested, and the T/C [5] was 94 % of control, the T/C [2] was 100 % of control and the T/C [6] was 98 % of control. For the same molecule, the T/C [3] was 102 % of control, the T/C (endpoint: mean survival time, dose: 400.0 mg/kg/injection, schedule: Q01DX009 (ip), vehicle: saline with Tween-80) was 94 % of control and the T/C [4] was 100 % of control.

For `CC(=O)Nc1ccc([N+](=O)[O-])cc1C`, the T/C [1] was 101 % of control, the T/C [2] was 100 % of control and the T/C [3] was 103 % of control.

With `Nc1ccn(C2CC3[O][Sn]([c]4ccccc4)([c]4ccccc4)[O]CC3O2)c(=O)n1` (centres undefined) the T/C (endpoint: mean survival time, dose: 6.25 mg/kg/injection, schedule: Q01DX005 (ip), vehicle: distilled water + Tween-80) was 103 % of control, the T/C (endpoint: mean survival time, dose: 12.5 mg/kg/injection, schedule: Q01DX005 (ip), vehicle: distilled water + Tween-80) was 93 % of control and the T/C (endpoint: mean survival time, dose: 25.0 mg/kg/injection, schedule: Q01DX005 (ip), vehicle: distilled water + Tween-80) was 93 % of control. For the same molecule, the T/C (endpoint: mean survival time, dose: 50.0 mg/kg/injection, schedule: Q01DX005 (ip), vehicle: distilled water + Tween-80) was 88 % of control.
